Laboratory results reported in patent US20030114393A1 (priority 1999, published 2003).
Read-outs that look alike come from different tables or passages of the source.

What was measured:
MCF-7-AdrR cells [1] = assay: TMR (tetramethylrosamine chloride) accumulation, in vitro drug uptake model; format: cell-based, human; conditions: for EC50: Homo sapiens, 0.5 h, read-out: concentration half maximally effective on TMR accumulation; for maximal stimulation of TMR accumulation / effect on TMR accumulation: MCF-7-AdrR cells; for maximal stimulation of TMR accumulation: 10 μM TMR, 30 minutes at 37° C., relative to TMR alone; for effect on TMR accumulation: FIG. 1A/1B
Experimental: The effect of steroidal alkaloids on drug transport was examined by measuring cellular accumulation of TMR, a fluorescent model drug, according to Eytan et al. (Eytan, G. D. et al., Eur. J. Biochem. 248: 104-112, 1997) with some modifications. Cells were seeded in 24-well tissue culture plates at a density of 0.5×10^5 cells/well and were grown for 24 h in growth medium supplemented with 0.5% FCS. TMR (diluted from a 10 mM stock in DMSO) was added to the cells at a final concentration of 10 μM, in 0.5 ml of growth medium in the presence or absence of the tested alkaloids (given prior to the dye as indicated). Cells were incubated with TMR and the tested drug for 30 minutes at 37° C. To terminate the assay, the plates were placed on ice and the cells were washed three times with ice-cold phosphate-buffered saline (PBS) in order to remove residual TMR. The cells were then lysed by incubation with 0.5 ml of 0.5 N NaOH for 20 minutes at room temperature, and the lysates were neutralized with 0.5 ml of 0.5 N HCl and collected. Cell-associated TMR was determined by measuring the fluorescence intensity of the lysates using a fluorescence spectrophotometer (excitation at 555-nm, emission at 575-nm). Blank values obtained at zero time were subtracted from all the fluorescence values and the results were normalized to the amount of cellular protein in each well. Experiments were carried out in triplicates and were repeated at least twice. Results are expressed as a percentage of incubations with TMR alone.
Expression of multidrug transporters markedly decreases drug accumulation in MDR cells. Conversely, in such cells drug accumulation is increased by inhibition of P-gp and related proteins with MDR reversal agents. TMR accumulation was utilized to examine the effect of steroidal alkaloids on P.gp in MCF-7-AdrR adriamycin-resistant human breast adenocarcinoma cells.

MCF-7-AdrR cells [2] = assay: cells; conditions: for reduction of cell viability by adriamycin in the presence of the steroidal alkaloid: 10 μM alkaloid fixed, increasing adriamycin up to 10 μM, compared with drug-free incubations; for EC50: Homo sapiens, read-out: EC50 of sensitization of the cells to adriamycin; for reduction of cell survival by the steroidal alkaloid alone: alkaloid alone (10 μM), MCF-7-AdrR, MTT
Experimental: Cells were plated in 96-well plates at a density of 4×10^3 cells/well in 0.1 ml drug-free DMEM containing 5% fetal calf serum, and incubated at 37° C. for 48 h. After this time, cytotoxic drugs (adriamycin or vinblastine) were added to the wells at the indicated concentrations, in the absence or presence of the tested steroidal alkaloids, and the cells were further incubated for an additional 48-72 h. The cytotoxic activity of the drugs was then determined using a standard MTT cell survival assay (Hansen, M. B. et al., J. Immunol. Meth 119: 203-210. The […] reagent (diluted from a 5 mg/ml solution in PBS) was added to all the wells at a final concentration of 0.6 mg/ml and the cells were further incubated at 37° C. for 2 or 3 h. The reaction was terminated by adding 100 μl/well of an extraction solution consisting of 20% (w/v) sodium dodecyl sulfate (SDS) in 50% aqueous dimethyl formamide solution, pH 4.8. The plates were left overnight at room temperature in the dark, following which the absorbance was read at 570-nm using an ELISA plate reader. […] Data points represent the mean±S.D. of a quadruplicate determination from a representative experiment that was repeated at least twice. The results are expressed as a percentage of control, drug-free wells.
The cytotoxic effect of the drugs was evaluated by utilizing the MTT cell viability assay, a standard assay for assessing drug resistance and its reversal. Routinely, MCF-7-AdrR cells were exposed to increasing concentrations of drugs for 48 h and the number of viable cells was quantitated after adding the MTT reagent.

[3] = literature (Keeler, 1978; Gaffield and Keeler, 1996); cited from earlier work
[4] = 10 μM tested compound, increasing vinblastine, 48 h, FIG. 5

## CC1=C2C[C@H]3[C@@H](CC=C4C[C@@H](O)CC[C@@]43C)[C@@H]2CC[C@]12O[C@@H]1C[C@H](C)CN[C@H]1[C@H]2C [cyclopamine]
MCF-7-AdrR cells [1]
  EC50: ~1000 nM
  maximal stimulation of TMR accumulation: 2 fold
  effect on TMR accumulation: concentration-dependent increase
MCF-7-AdrR cells [2]; 48 h
  reduction of cell viability by adriamycin in the presence of the steroidal alkaloid: ~90%
  EC50: 2500 nM
  reduction of cell survival by the steroidal alkaloid alone: 10-20%
[3]
  teratogenic activity: potent teratogen

## CC1=C2C(=O)[C@H]3[C@@H](CC=C4C[C@@H](O)CC[C@@]43C)[C@@H]2CC[C@]12O[C@@H]1C[C@H](C)CN[C@H]1[C@H]2C [jervine]
MCF-7-AdrR cells [2]; [4]
  sensitization to vinblastine: shift of concentration-response curve to the left: most effective

## C[C@@H]1CN[C@H]2[C@@H](C)[C@@]3(CC[C@H]4[C@@H]5CC[C@H]6C[C@@H](O)CC[C@]6(C)[C@H]5C(=O)[C@@H]4[C@H]3C)O[C@@H]2C1 [tetrahydrojervine]
MCF-7-AdrR cells [2]; [4]
  sensitization to vinblastine: shift of concentration-response curve to the left: most effective

## C[C@H]1CC[C@]2(NC1)O[C@H]1C[C@H]3[C@@H]4CC[C@H]5C[C@@H](O)CC[C@]5(C)[C@H]4CC[C@]3(C)[C@H]1[C@@H]2C [tomatidine]
MCF-7-AdrR cells [1]
  EC50: ~1000 nM
  maximal stimulation of TMR accumulation: 2.5 fold
  effect on TMR accumulation: concentration-dependent increase
MCF-7-AdrR cells [2]; 48 h
  reduction of cell viability by adriamycin in the presence of the steroidal alkaloid: more than 90%
  EC50: 5000 nM
  reduction of cell survival by the steroidal alkaloid alone: modest cytotoxic activity of its own
MCF-7-AdrR cells [2]; 48 h, listed as Tomatidine
  reduction of cell survival by the steroidal alkaloid alone: 20-25%
[3]
  teratogenic activity: no teratogenic activity

## COc1ccc(CCN(C)CCCC(C#N)(c2ccc(OC)c(OC)c2)C(C)C)cc1OC (stereo not drawn) [verapamil, reference compound]
MCF-7-AdrR cells [1]
  effect on TMR accumulation: back to near normal levels
MCF-7-AdrR cells [2]; preliminary experiments, data not shown
  effect on drug (adriamycin) sensitivity of MCF-7-AdrR cells: markedly increase their drug sensitivity

## Cc1c([C@H](C)[C@@H]2NC[C@@H](C)C[C@H]2O)ccc2c1C[C@H]1[C@H]2CC=C2C[C@@H](O)CC[C@@]21C [veratramine]
MCF-7-AdrR cells [2]; 1 μM veratramine, increasing vinblastine, 48 h, FIG. 5
  sensitization to vinblastine: sensitize

## cyclopamine-4en-3-one [cylopamine4-en-3-one]
MCF-7-AdrR cells [2]
  sensitization to vinblastine: shift of concentration-response curve to the left: most effective
